In ChEMBL document CHEMBL1208667, “Permanent positive charge strongly influences DNA/RNA binding and antiproliferative activity of urea-phenanthridinium conjugates” (Eur J Med Chem, 2010):

test system: not listed separately; assay: Solubility of the compound in water; format: physicochemical; details: buffer

| solubility | SMILES |
| --- | --- |
| 1060 µM | Cc1c2cc(NC(=O)NCCCCCCCCCNC(=O)Nc3ccc4c(c3)c(C)[n+](C)c3ccccc43)ccc2c2ccccc2[n+]1C.O=S(=O)([O-])O.O=S(=O)([O-])O |

test system: Calf thymus DNA; assay: Binding affinity to calf thymus DNA in citric acid buffer at pH 5 by fluorescence titration assay; format: nucleic-acid assay; details: Bos taurus

| log Ks | SMILES |
| --- | --- |
| 5.6 | Cc1c2cc(NC(=O)NCCCCCCCCCNC(=O)Nc3ccc4c(c3)c(C)[n+](C)c3ccccc43)ccc2c2ccccc2[n+]1C.O=S(=O)([O-])O.O=S(=O)([O-])O |

test system: Nucleic Acid; assay: Binding affinity to poly dA-poly dT RNA in citric acid buffer at pH 5 by fluorescence titration assay relative to control; format: nucleic-acid assay; details: not given

| RFU | SMILES |
| --- | --- |
| 2.3 | Cc1c2cc(NC(=O)NCCCCCCCCCNC(=O)Nc3ccc4c(c3)c(C)[n+](C)c3ccccc43)ccc2c2ccccc2[n+]1C.O=S(=O)([O-])O.O=S(=O)([O-])O |

test system: Nucleic Acid; assay: Binding affinity to poly dA-poly dT RNA in citric acid buffer at pH 5 by fluorescence titration assay; format: nucleic-acid assay; details: not given

| log Ks | SMILES |
| --- | --- |
| 6.6 | Cc1c2cc(NC(=O)NCCCCCCCCCNC(=O)Nc3ccc4c(c3)c(C)[n+](C)c3ccccc43)ccc2c2ccccc2[n+]1C.O=S(=O)([O-])O.O=S(=O)([O-])O |

test system: Nucleic Acid; assay: Binding affinity to poly A-poly U RNA in citric acid buffer at pH 5 by fluorescence titration assay relative to control; format: nucleic-acid assay; details: not given

| RFU | SMILES |
| --- | --- |
| 8.1 | Cc1c2cc(NC(=O)NCCCCCCCCCNC(=O)Nc3ccc4c(c3)c(C)[n+](C)c3ccccc43)ccc2c2ccccc2[n+]1C.O=S(=O)([O-])O.O=S(=O)([O-])O |

test system: Nucleic Acid; assay: Binding affinity to poly A-poly U RNA in citric acid buffer at pH 5 by fluorescence titration assay; format: nucleic-acid assay; details: not given

| log Ks | SMILES |
| --- | --- |
| 5.4 | Cc1c2cc(NC(=O)NCCCCCCCCCNC(=O)Nc3ccc4c(c3)c(C)[n+](C)c3ccccc43)ccc2c2ccccc2[n+]1C.O=S(=O)([O-])O.O=S(=O)([O-])O |

test system: Nucleic Acid; assay: Binding affinity to poly G-poly C RNA in citric acid buffer at pH 5 by fluorescence titration assay relative to control; format: nucleic-acid assay; details: not given

| RFU | SMILES |
| --- | --- |
| 0 | Cc1c2cc(NC(=O)NCCCCCCCCCNC(=O)Nc3ccc4c(c3)c(C)[n+](C)c3ccccc43)ccc2c2ccccc2[n+]1C.O=S(=O)([O-])O.O=S(=O)([O-])O |

test system: Nucleic Acid; assay: Binding affinity to poly G-poly C RNA in citric acid buffer at pH 5 by fluorescence titration assay; format: nucleic-acid assay; details: not given

| log Ks | SMILES |
| --- | --- |
| 5.2 | Cc1c2cc(NC(=O)NCCCCCCCCCNC(=O)Nc3ccc4c(c3)c(C)[n+](C)c3ccccc43)ccc2c2ccccc2[n+]1C.O=S(=O)([O-])O.O=S(=O)([O-])O |

test system: Calf thymus DNA; assay: Binding affinity to calf thymus DNA in sodium cacodylate buffer at pH 7 by fluorescence titration assay relative to control; format: nucleic-acid assay; details: Bos taurus

| RFU | SMILES |
| --- | --- |
| 0.7 | Cc1c2cc(NC(=O)NCCCCCCCCCNC(=O)Nc3ccc4c(c3)c(C)[n+](C)c3ccccc43)ccc2c2ccccc2[n+]1C.O=S(=O)([O-])O.O=S(=O)([O-])O |

test system: Calf thymus DNA; assay: Binding affinity to calf thymus DNA in sodium cacodylate buffer at pH 7 by fluorescence titration assay; format: nucleic-acid assay; details: Bos taurus

| log Ks | SMILES |
| --- | --- |
| 5.9 | Cc1c2cc(NC(=O)NCCCCCCCCCNC(=O)Nc3ccc4c(c3)c(C)[n+](C)c3ccccc43)ccc2c2ccccc2[n+]1C.O=S(=O)([O-])O.O=S(=O)([O-])O |

test system: Nucleic Acid; assay: Binding affinity to poly dA-poly dT RNA in sodium cacodylate buffer at pH 7 by fluorescence titration assay relative to control; format: nucleic-acid assay; details: not given

| RFU | SMILES |
| --- | --- |
| 3.9 | Cc1c2cc(NC(=O)NCCCCCCCCCNC(=O)Nc3ccc4c(c3)c(C)[n+](C)c3ccccc43)ccc2c2ccccc2[n+]1C.O=S(=O)([O-])O.O=S(=O)([O-])O |

test system: Nucleic Acid; assay: Binding affinity to poly dA-poly dT RNA in sodium cacodylate buffer at pH 7 by fluorescence titration assay; format: nucleic-acid assay; details: not given

| log Ks | SMILES |
| --- | --- |
| 5.6 | Cc1c2cc(NC(=O)NCCCCCCCCCNC(=O)Nc3ccc4c(c3)c(C)[n+](C)c3ccccc43)ccc2c2ccccc2[n+]1C.O=S(=O)([O-])O.O=S(=O)([O-])O |

test system: Nucleic Acid; assay: Binding affinity to poly A-poly U RNA in sodium cacodylate buffer at pH 7 by fluorescence titration assay relative to control; format: nucleic-acid assay; details: not given

| RFU | SMILES |
| --- | --- |
| 4 | Cc1c2cc(NC(=O)NCCCCCCCCCNC(=O)Nc3ccc4c(c3)c(C)[n+](C)c3ccccc43)ccc2c2ccccc2[n+]1C.O=S(=O)([O-])O.O=S(=O)([O-])O |

test system: Nucleic Acid; assay: Binding affinity to poly A-poly U RNA in sodium cacodylate buffer at pH 7 by fluorescence titration assay; format: nucleic-acid assay; details: not given

| log Ks | SMILES |
| --- | --- |
| 5.8 | Cc1c2cc(NC(=O)NCCCCCCCCCNC(=O)Nc3ccc4c(c3)c(C)[n+](C)c3ccccc43)ccc2c2ccccc2[n+]1C.O=S(=O)([O-])O.O=S(=O)([O-])O |

test system: Nucleic Acid; assay: Binding affinity to poly G-poly C RNA in sodium cacodylate buffer at pH 7 by fluorescence titration assay relative to control; format: nucleic-acid assay; details: not given

| RFU | SMILES |
| --- | --- |
| 0.5 | Cc1c2cc(NC(=O)NCCCCCCCCCNC(=O)Nc3ccc4c(c3)c(C)[n+](C)c3ccccc43)ccc2c2ccccc2[n+]1C.O=S(=O)([O-])O.O=S(=O)([O-])O |

test system: Nucleic Acid; assay: Binding affinity to poly dA-poly dT RNA in sodium cacodylate buffer at pH 7 by UV-v titration assay; format: nucleic-acid assay; details: not given

| log Ks | SMILES |
| --- | --- |
| 5.3 | Cc1c2cc(NC(=O)NCCCCCCCCCNC(=O)Nc3ccc4c(c3)c(C)[n+](C)c3ccccc43)ccc2c2ccccc2[n+]1C.O=S(=O)([O-])O.O=S(=O)([O-])O |

test system: Nucleic Acid; assay: Binding affinity to […] assessed as change in melting temperature at compound to DNA molar ratio of 0.2 at pH 5 by thermal denaturation assay; format: nucleic-acid assay; details: not given

| ΔTm | SMILES |
| --- | --- |
| 7.5 °C | Cc1c2cc(NC(=O)NCCCCCCCCCNC(=O)Nc3ccc4c(c3)c(C)[n+](C)c3ccccc43)ccc2c2ccccc2[n+]1C.O=S(=O)([O-])O.O=S(=O)([O-])O |

test system: Nucleic Acid; assay: Binding affinity to […] assessed as change in melting temperature at compound to DNA molar ratio of 0.3 at pH 5 by thermal denaturation assay; format: nucleic-acid assay; details: not given

| ΔTm | SMILES |
| --- | --- |
| 7.7 °C | Cc1c2cc(NC(=O)NCCCCCCCCCNC(=O)Nc3ccc4c(c3)c(C)[n+](C)c3ccccc43)ccc2c2ccccc2[n+]1C.O=S(=O)([O-])O.O=S(=O)([O-])O |

test system: Nucleic Acid; assay: Binding affinity to poly A-poly U RNA assessed as change in melting temperature at compound to DNA molar ratio of 0.2 at pH 5 by thermal denaturation assay; format: nucleic-acid assay; details: not given

| ΔTm | SMILES |
| --- | --- |
| 1.8 °C | Cc1c2cc(NC(=O)NCCCCCCCCCNC(=O)Nc3ccc4c(c3)c(C)[n+](C)c3ccccc43)ccc2c2ccccc2[n+]1C.O=S(=O)([O-])O.O=S(=O)([O-])O |

test system: Calf thymus DNA; assay: Binding affinity to calf thymus DNA assessed as change in melting temperature at compound to DNA molar ratio of 0.3 at pH 7 by thermal denaturation assay; format: nucleic-acid assay; details: Bos taurus

| ΔTm | SMILES |
| --- | --- |
| 5.8 °C | Cc1c2cc(NC(=O)NCCCCCCCCCNC(=O)Nc3ccc4c(c3)c(C)[n+](C)c3ccccc43)ccc2c2ccccc2[n+]1C.O=S(=O)([O-])O.O=S(=O)([O-])O |

test system: Nucleic Acid; assay: Binding affinity to […] assessed as change in melting temperature at compound to DNA molar ratio of 0.2 at pH 7 by thermal denaturation assay; format: nucleic-acid assay; details: not given

| ΔTm | SMILES |
| --- | --- |
| 4.2 °C | Cc1c2cc(NC(=O)NCCCCCCCCCNC(=O)Nc3ccc4c(c3)c(C)[n+](C)c3ccccc43)ccc2c2ccccc2[n+]1C.O=S(=O)([O-])O.O=S(=O)([O-])O |

test system: Nucleic Acid; assay: Binding affinity to […] assessed as change in melting temperature at compound to DNA molar ratio of 0.3 at pH 7 by thermal denaturation assay; format: nucleic-acid assay; details: not given

| ΔTm | SMILES |
| --- | --- |
| 5.5 °C | Cc1c2cc(NC(=O)NCCCCCCCCCNC(=O)Nc3ccc4c(c3)c(C)[n+](C)c3ccccc43)ccc2c2ccccc2[n+]1C.O=S(=O)([O-])O.O=S(=O)([O-])O |
